Source: US20230119539A1, “TRACELESS LINKERS AND PROTEIN-CONJUGATES THEREOF” (Regeneron Pharmaceuticals, Inc., priority 2019, published 2023)

What was measured:
[1] = Solubility of linker-payloads and quenched linker-payloads; format: physicochemical; conditions: quenched linker-payloads, Table 6a
Description: The quenched linker-payloads were water soluble and used for the pH stability test.

[2] = Solubility of quenched linker-payloads; conditions: Table 3c, linker-payloads quenched with taurine-PEG4-azide or CD-N3
[3] = pH stability of quenched linker-payloads in buffers (LCMS); format: physicochemical; conditions: for percentage of the remaining compound: RT
Outline: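 Payloads or quenched linker-payloads at 0.2 mg/mL initial concentration in DMSO/PBS (1/5, v/v) were tested at pH 3, 4, 5, 6, 7.4 and 8.5. Samples were incubated at RT. Stability was monitored by LCMS from 1 hr to 21 days.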

CCCC1O[C@@H]2C[C@H]3[C@@H]4CCC5=CC(=O)C=C[C@]5(C)[C@H]4[C@@H](O)C[C@]3(C)[C@]2(C(=O)COCN(C)C(=O)CNC(=O)OCc2ccc(NC(=O)[C@H](CCCNC(N)=O)NC(=O)[C@@H](NC(=O)CCOCCOCCOCCOCCNC(=O)CCC(=O)N3Cc4ccccc4-c4c(nnn4CCOCCOCCOCCOCCC(=O)NCCS(=O)(=O)O)-c4ccccc43)C(C)C)cc2)O1 (stereo partly drawn) [Q1L1-PII-8]
0%: P: percentage of budesonide released from the linker-payloads ([3]; pH 4.0, day 1) | P: percentage of budesonide released from the linker-payloads ([3]; pH 4.0, day 2) | P: percentage of budesonide released from the linker-payloads ([3]; pH 5.0, day 1) | P: percentage of budesonide released from the linker-payloads ([3]; pH 5.0, day 2) | P: percentage of budesonide released from the linker-payloads ([3]; pH 5.0, day 7) | P: percentage of budesonide released from the linker-payloads ([3]; pH 7.4, day 1) | P: percentage of budesonide released from the linker-payloads ([3]; pH 7.4, day 2) | P: percentage of budesonide released from the linker-payloads ([3]; pH 7.4, day 7)
>1000 µg/mL: Solubility [1] | Solubility [2]
3%: P: percentage of budesonide released from the linker-payloads ([3]; pH 4.0, day 7)
89%: percentage of the remaining compound ([3]; pH 3.0, 2 Day)
98%: percentage of the remaining compound ([3]; pH 4.0, 4 Day)
84%: percentage of the remaining compound ([3]; pH 3.0, 3 Day)
65%: percentage of the remaining compound ([3]; pH 3.0, 7 Day)
93%: percentage of the remaining compound ([3]; pH 3.0, 1 Day)
96%: percentage of the remaining compound ([3]; pH 4.0, 7 Day) | LP: percentage of linker-payloads remaining ([3]; pH 4.0, day 7)
100%: percentage of the remaining compound ([3]; DMSO, 1 Day) | percentage of the remaining compound ([3]; DMSO, 2 Day) | percentage of the remaining compound ([3]; DMSO, 3 Day) | percentage of the remaining compound ([3]; DMSO, 4 Day) | percentage of the remaining compound ([3]; DMSO, 7 Day) | percentage of the remaining compound ([3]; DMSO, 1 hr) | percentage of the remaining compound ([3]; DMSO, 4 hr) | percentage of the remaining compound ([3]; pH 3.0, 1 hr) | percentage of the remaining compound ([3]; pH 3.0, 4 hr) | percentage of the remaining compound ([3]; pH 4.0, 1 Day) | percentage of the remaining compound ([3]; pH 4.0, 1 hr) | percentage of the remaining compound ([3]; pH 4.0, 4 hr) | LP: percentage of linker-payloads remaining ([3]; pH 4.0, day 1) | percentage of the remaining compound ([3]; pH 5.0, 1 Day) | percentage of the remaining compound ([3]; pH 5.0, 2 Day) | percentage of the remaining compound ([3]; pH 5.0, 3 Day) | percentage of the remaining compound ([3]; pH 5.0, 4 Day) | percentage of the remaining compound ([3]; pH 5.0, 7 Day) | percentage of the remaining compound ([3]; pH 5.0, 1 hr) | percentage of the remaining compound ([3]; pH 5.0, 4 hr) | LP: percentage of linker-payloads remaining ([3]; pH 5.0, day 1) | LP: percentage of linker-payloads remaining ([3]; pH 5.0, day 2) | LP: percentage of linker-payloads remaining ([3]; pH 5.0, day 7) | percentage of the remaining compound ([3]; pH 7.4, 1 Day) | percentage of the remaining compound ([3]; pH 7.4, 2 Day) | percentage of the remaining compound ([3]; pH 7.4, 3 Day) | percentage of the remaining compound ([3]; pH 7.4, 4 Day) | percentage of the remaining compound ([3]; pH 7.4, 7 Day) | percentage of the remaining compound ([3]; pH 7.4, 1 hr) | percentage of the remaining compound ([3]; pH 7.4, 4 hr) | LP: percentage of linker-payloads remaining ([3]; pH 7.4, day 1) | LP: percentage of linker-payloads remaining ([3]; pH 7.4, day 2) | LP: percentage of linker-payloads remaining ([3]; pH 7.4, day 7)
99%: percentage of the remaining compound ([3]; pH 4.0, 2 Day) | percentage of the remaining compound ([3]; pH 4.0, 3 Day) | LP: percentage of linker-payloads remaining ([3]; pH 4.0, day 2)
79%: percentage of the remaining compound ([3]; pH 3.0, 4 Day)

CCCC1O[C@@H]2C[C@H]3[C@@H]4CCC5=CC(=O)C=C[C@]5(C)[C@H]4[C@@H](O)C[C@]3(C)[C@]2(C(=O)COC2CCCN2C(=O)CNC(=O)CCOCCOCCOCCOCCNC(=O)CCC(=O)N2Cc3ccccc3-c3c(nnn3CC3OC4OC5C(CO)OC(OC6C(CO)OC(OC7C(CO)OC(OC8C(CO)OC(OC9C(CO)OC(OC3C(O)C4O)C(O)C9O)C(O)C8O)C(O)C7O)C(O)C6O)C(O)C5O)-c3ccccc32)O1 (stereo partly drawn) [Q2L6-PII-9]
71%: percentage of the remaining compound ([3]; pH 4.0, 4 hr)
100%: percentage of the remaining compound ([3]; DMSO, 1 Day) | percentage of the remaining compound ([3]; DMSO, 2 Day) | percentage of the remaining compound ([3]; DMSO, 3 Day) | percentage of the remaining compound ([3]; DMSO, 4 Day) | percentage of the remaining compound ([3]; DMSO, 4 hr) | percentage of the remaining compound ([3]; pH 5.0, 4 hr) | percentage of the remaining compound ([3]; pH 7.4, 1 Day) | percentage of the remaining compound ([3]; pH 7.4, 2 Day) | percentage of the remaining compound ([3]; pH 7.4, 3 Day) | percentage of the remaining compound ([3]; pH 7.4, 4 Day) | percentage of the remaining compound ([3]; pH 7.4, 7 Day) | percentage of the remaining compound ([3]; pH 7.4, 1 hr) | percentage of the remaining compound ([3]; pH 7.4, 4 hr)
8%: percentage of the remaining compound ([3]; pH 3.0, 4 hr) | percentage of the remaining compound ([3]; pH 4.0, 2 Day)
0%: percentage of the remaining compound ([3]; pH 3.0, 1 Day) | percentage of the remaining compound ([3]; pH 4.0, 4 Day)
86%: percentage of the remaining compound ([3]; pH 5.0, 2 Day)
69%: percentage of the remaining compound ([3]; pH 5.0, 4 Day)
82%: percentage of the remaining compound ([3]; pH 5.0, 3 Day)
25%: percentage of the remaining compound ([3]; pH 4.0, 1 Day)
>1000 µg/mL: Solubility [1] | Solubility [2]
92%: percentage of the remaining compound ([3]; DMSO, 7 Day) | percentage of the remaining compound ([3]; pH 5.0, 1 Day)
66%: percentage of the remaining compound ([3]; pH 5.0, 7 Day)
2%: percentage of the remaining compound ([3]; pH 4.0, 3 Day)

CCCC1O[C@@H]2C[C@H]3[C@@H]4CCC5=CC(=O)C=C[C@]5(C)[C@H]4[C@@H](O)C[C@]3(C)[C@]2(C(=O)COCNC(=O)CNC(=O)CCC(=O)N2Cc3ccccc3-c3c(nnn3CC3OC4OC5C(CO)OC(OC6C(CO)OC(OC7C(CO)OC(OC8C(CO)OC(OC9C(CO)OC(OC3C(O)C4O)C(O)C9O)C(O)C8O)C(O)C7O)C(O)C6O)C(O)C5O)-c3ccccc32)O1 (stereo partly drawn) [Q2L7-PII-1]
100%: percentage of the remaining compound ([3]; pH 3.0, 1 Day) | percentage of the remaining compound ([3]; pH 3.0, 2 Day) | percentage of the remaining compound ([3]; pH 3.0, 1 hr) | percentage of the remaining compound ([3]; pH 3.0, 4 hr) | percentage of the remaining compound ([3]; pH 4.0, 1 Day) | percentage of the remaining compound ([3]; pH 4.0, 2 Day) | percentage of the remaining compound ([3]; pH 4.0, 3 Day) | percentage of the remaining compound ([3]; pH 4.0, 4 Day) | percentage of the remaining compound ([3]; pH 4.0, 7 Day) | percentage of the remaining compound ([3]; pH 4.0, 1 hr) | percentage of the remaining compound ([3]; pH 4.0, 4 hr) | percentage of the remaining compound ([3]; pH 5.0, 1 Day) | percentage of the remaining compound ([3]; pH 5.0, 2 Day) | percentage of the remaining compound ([3]; pH 5.0, 3 Day) | percentage of the remaining compound ([3]; pH 5.0, 4 Day) | percentage of the remaining compound ([3]; pH 5.0, 7 Day) | percentage of the remaining compound ([3]; pH 5.0, 1 hr) | percentage of the remaining compound ([3]; pH 5.0, 4 hr) | percentage of the remaining compound ([3]; pH 7.4, 1 Day) | percentage of the remaining compound ([3]; pH 7.4, 2 Day) | percentage of the remaining compound ([3]; pH 7.4, 3 Day) | percentage of the remaining compound ([3]; pH 7.4, 4 Day) | percentage of the remaining compound ([3]; pH 7.4, 7 Day) | percentage of the remaining compound ([3]; pH 7.4, 1 hr) | percentage of the remaining compound ([3]; pH 7.4, 4 hr)
97%: percentage of the remaining compound ([3]; DMSO, 1 Day) | percentage of the remaining compound ([3]; DMSO, 2 Day) | percentage of the remaining compound ([3]; DMSO, 3 Day) | percentage of the remaining compound ([3]; DMSO, 4 Day) | percentage of the remaining compound ([3]; DMSO, 7 Day) | percentage of the remaining compound ([3]; DMSO, 1 hr) | percentage of the remaining compound ([3]; DMSO, 4 hr)
96%: percentage of the remaining compound ([3]; pH 3.0, 3 Day)
91%: percentage of the remaining compound ([3]; pH 3.0, 7 Day)
>1000 µg/mL: Solubility [1] | Solubility [2]
95%: percentage of the remaining compound ([3]; pH 3.0, 4 Day)
